We go through 2 compounds from patent publication US20120094958A1, “QUINOLINES AS INHIBITORS OF FARNESYL PYROPHOSPHATE SYNTHASE” (NOVARTIS AG, priority 2008, published 2012).

The target of data set [1] is T1, FPPS (Farnesyl pyrophosphate synthase) (Homo sapiens, UniProt P14324).
T1 sequence (P14324 1-353 isoform P14324-2): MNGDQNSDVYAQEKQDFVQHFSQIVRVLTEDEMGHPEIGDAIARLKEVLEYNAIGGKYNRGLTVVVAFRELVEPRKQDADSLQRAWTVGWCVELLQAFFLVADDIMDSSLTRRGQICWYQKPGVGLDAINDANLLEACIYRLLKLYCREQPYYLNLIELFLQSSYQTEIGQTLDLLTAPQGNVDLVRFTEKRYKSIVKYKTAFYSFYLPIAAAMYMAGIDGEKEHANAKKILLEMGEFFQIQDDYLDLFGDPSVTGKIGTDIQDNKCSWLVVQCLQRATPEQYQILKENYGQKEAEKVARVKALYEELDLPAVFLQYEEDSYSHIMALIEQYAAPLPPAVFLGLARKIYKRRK
Kind of data set: FPPS Assay: LC-MS Method. In kind it is biochemical. Conditions: GPP/IPP 5 μM each, reaction stopped after 10 minutes. How it is done:
Recombinant human Farnesyl Pyrophosphate synthase (FPPS) was cloned, expressed and purified as previously described {J.-M. Rondeau et al., ChemMedChem 2006, 1, 267-271.} and stored as a 10 mg/mL stock solution in 25 mM Tris pH 7.4, 25 mM NaCl, 2 mM DTT (dithiothreitol). Geranyl pyrophosphate (GPP) was purchased from Anawa AG (Switzerland) and stored as a 1 mg/mL solution in 4 parts isopropanol:3 parts ammonia:1 part water. 1-[^3H]Isopentenyl pyrophosphate (IPP), 50 Ci/mmol; 1 Ci/mL, was purchased from Anawa AG and stored in ethanol:ammonia hydroxide 1:1 at −80 C. 1-[^3H] Farnesyl pyrophosphate triammonium salt, 100 Ci/mmol; 1 mCi/mL in 70% ethanol, 0.25 M ammonium bicarbonate was purchased from Anawa AG. Phospholipid-coated 384-well image FlashPlates™ were purchased from PerkinElmer. the assay buffer consisted of 20 mM HEPES pH7.4, 5 mM MgCl2 and 1 mM CaCl2.
Selected compounds are assayed in another FPPS based assay:
Into each well of a 384-well plate, 5 μL of compound in 20% DMSO/water is placed. 25 μL of GPP/IPP (5 μM each in assay buffer) is then added. The reaction is started with the addition of 10 μL of FPPS (diluted 1 to 10000 with assay buffer). After 10 minutes, the reaction is stopped by addition of 10 μL of 2 μM FSPP in 2% DMIPA/IPA. The reaction mixture is then extracted with 50 μL of n-pentanol using vortex mixing. After phase separation, 25 μL of the upper (n-pentanol) layer is transferred to a new 384-well plate and the pentanol is evaporated using a vacuum centrifuge. The dried residue is reconstituted in 50 μL of 0.1% DMIPA/water for analysis by the LC/MS/MS method.
LC/MS/MS analyses are performed on a Micromass Quattro Micro interfaced to an Agilent 1100 binary LC pump. Injection is performed by a Gilson 215/889 autosampler using an injection loop size of 2.5 μL. Chromatography is performed on a Waters 2.1×20 mm Xterra MS C18 5 μm guard column (P/N186000652) contained in a guard column holder (P/N 186000262) using 0.1% DMIPA/methanol as solvent A and 0.1% DMIPA/water as solvent B. The gradient is 5% A from 0.00 to 0.30 min, 50% A at 0.31 min, 80% A at 1.00 min, and 5% A from 1.01 to 2.00 min. The flow rate is 0.3 mL/min and the flow is diverted to waste from 0.00 to 0.50 min and again from 1.20 to 2.00 min.
The MRM transitions monitored are 381^−>79^− for FPP and 397^−>159^− for FSPP at a collision energy of 22 eV and a collision cell pressure of 2.1×10^−3 mbar of Ar. The dwell time per transition is 400 msec with a span of 0.4 Da. The interchannel delay and interscan delay are both 0.02 sec. Other mass spectrometric operating parameters are: capillary, 2.0 kV; cone, 35 V; extractor, 2.0 V, source temp., 100° C.; desolvation gas temp., 250° C.; desolvation gas flow, 650 L/hr; cone gas flow, 25 L/hr; multiplier, 650 V.
The total cycle time per sample is 2.5 minutes. Since the analysis is formatted for 384-well plates, a plate is analyzed in 16 hours. The chromatograms are processed using Quanlynx software, which divides the area of individual FPP peaks by the area of the FSPP peaks (internal standard). The resulting values are reported as the relative response for the corresponding sample well.

In general, melting point refers to the temperature of the solid-liquid transition. For orientation: IC50 means the concentration needed to halve the response being measured. Higher therefore signals weaker potency. `O=C(O)c1ccc2cc(-c3ccsc3)cc(-c3cccc4ccccc34)c2n1` [Example 34, 8-Naphthalen-1-yl-6-thiophen-3-yl-quinoline-2-carboxylic acid] yielded a melting point of 164 to 166 °C. The same compound showed an IC50 in data set [1] of 100 nM.
The corresponding values for `CCOC(=O)Nc1cc(-c2cccc3ccccc23)c2nc(C(=O)O)ccc2c1` [Example 29, 6-Ethoxycarbonylamino-8-naphthalen-1-yl-quinoline-2-carboxylic acid] are 205 to 208 °C and 37 nM.
